Structures can show the parent of a compound that is named as a salt. Where two headings read alike, the source gives them in different places.
What was measured:
histamine H3 receptor [1] = molecular target: T1, histamine H3 receptor (Rattus norvegicus, UniProt Q9QYN8); assay: H3 agonist effect: inhibition of [3H]histamine release from synaptosomes of rat cerebral cortex; assay type: biochemical; conditions: for Emax: maximum inhibition relative to that of exogenous histamine or (R)-alpha-methylhistamine, read-out: Intrinsic activity; for EC50: rat cerebral cortex synaptosomes, inhibition of [3H]histamine release, read-out: EC50 (50% effective concentration of partial agonists)
T1 construct: synthesized from [^3 H]histidine by synaptosomes of rat cerebral cortex; from tissue; host or cells: rat cerebral cortex synaptosomes
T1 sequence (Q9QYN8 whole entry): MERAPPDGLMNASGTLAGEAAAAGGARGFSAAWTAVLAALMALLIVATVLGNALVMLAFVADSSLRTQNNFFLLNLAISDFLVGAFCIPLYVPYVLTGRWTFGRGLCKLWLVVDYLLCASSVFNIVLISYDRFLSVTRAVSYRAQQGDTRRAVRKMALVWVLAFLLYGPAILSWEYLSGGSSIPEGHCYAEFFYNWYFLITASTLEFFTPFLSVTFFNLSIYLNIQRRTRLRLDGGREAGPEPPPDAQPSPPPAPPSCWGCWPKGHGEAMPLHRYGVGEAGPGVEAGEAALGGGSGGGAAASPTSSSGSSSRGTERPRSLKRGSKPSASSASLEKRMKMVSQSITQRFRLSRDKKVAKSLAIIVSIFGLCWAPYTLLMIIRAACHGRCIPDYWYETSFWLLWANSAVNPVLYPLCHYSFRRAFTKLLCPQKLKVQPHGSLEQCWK
Description: The partial agonist effect of the compounds is evaluated by comparison of the maximum inhibition which they induce relative to the maximum inhibition induced by exogenous histamine or [R]-α-methylhistamine; the ratio of these two values giving the intrinsic activity of the compound with respect to the system.

[2] = tested on: cerebral tele-methylhistamine; assay: agonist effect in vivo: change in the level of cerebral tele-methylhistamine in mice; conditions: for Change in the level of cerebral tele-methylhistamine (relative to controls): H3 partial agonists, mice, 10 mg/kg p.o., 90 min
Description: The effect of a partial agonist in vivo is characterized by the fact that the maximum reduction in the level of tele-methylhistamine which it induces at high dose is smaller than the reduction induced by a reference H3 agonist.
These various compounds were administered at a dose of 10 mg/kg p.o. and the mice sacrificed 90 min later.

[3] = tested on: cerebral tele-methylhistamine; assay: antagonist effect in vivo: change in the level of cerebral tele-methylhistamine in mice; conditions: Mus musculus, po, 1.5 h, read-out: Change in the level of cerebral tele-methylhistamine (relative to controls)
Description: Results are collated in Tables II and III below:
These various compounds were administered at a dose of 10 mg/kg p.o., and the mice sacrificed 90 min later.

histamine H3 receptor [4] = molecular target: T1, histamine H3 receptor; assay: H3 antagonist power: reversal of (R)-alpha-methylhistamine-induced inhibition of [3H]histamine release from synaptosomes of rat cerebral cortex; assay type: biochemical; conditions: read-out: Ki (apparent dissociation constant as histamine antagonist at the H3 receptors)
plasma extravasation = plasma extravasation induced in rats under the influence of capsaicin (tissue level of Evans blue); assay type: in vivo; conditions: capsaicin 90 μg/kg i.v.
From the text: In contrast, we have discovered that measurement of the activity of the cerebral histaminic neurons in vivo, reflected by the level of tele-methylhistamine, a characteristic metabolite of released histamine, constitutes a more sensitive test of agonist activity. In effect, compounds displaying an intrinsic activity ≤25% in vitro cause, in vivo, a maximum or virtually maximum fall in the level of the tele-methylhistamine. Another sensitive test of H3 agonist activity, in this instance in relation to peripheral organs, consists in measuring the plasma extravasation induced in rats under the influence of capsaicin (90 μg/kg i.v.) and determined by measuring the tissue level of Evans blue, a dye administered at the same time as capsaicin, namely 5 min before infusion and sacrifice (Saria et al., Naunyn-Schmiedeberg's Arch. Pharmacol. 1983, 324: 212).

[5] = H3 antagonists, mice, 10 mg/kg p.o., 90 min

## CCC(C)(C)NC(=O)OCCCc1c[nH]cn1 [Example 110, 3-(1H-Imidazol-4-yl)propyl N-(2-methyl-2-butyl)carbamate]
Histamine H3 receptor [1]; in words
  functional class at the histamine H3 receptors (agonists): agonists or partial agonists

## CC(C)CCOCCCc1c[nH]cn1 [Example 5, 3-(1H-Imidazol-4-yl)propyl 3-methylbutyl ether]
Histamine H3 receptor [1]; in vitro
  Emax: 20%
Histamine H3 receptor [1]
  EC50: 130 nM
[2]
  Change in the level of cerebral tele-methylhistamine (relative to controls): -52%

## C=CCNC(=O)OCCCc1c[nH]cn1 [Example 112, 3-(1H-Imidazol-4-yl)propyl-N-(2-propenyl) carbamate]
[3]; [5]
  change in vivo at 10 mg/kg: 98%

## c1ccc2cc(COCCCc3c[nH]cn3)ccc2c1 [Example 56, 3-(1H-Imidazol-4-yl)propyl 2-naphthylmethyl ether]
Histamine H3 receptor [4]
  Ki: 22 nM

## Cc1nc(-c2ccc(OCCCc3c[nH]cn3)cc2)no1 [Example 149, 3-(1H-Imidazol-4-yl)propyl 4-(5-methyl-1,2,4-oxadiazol-3-yl)phenyl ether]
Histamine H3 receptor [4]
  Ki: 44 nM

## O=C(c1ccc(OCCCc2c[nH]cn2)cc1)C1CC1 [Example 81, Cyclopropyl 4-(3-(1H-imidazol-4-yl)propyloxy)phenyl ketone]
[3]
  change in vivo at 10 mg/kg: 72%

## CC(=O)c1cccc(SCCc2c[nH]cn2)c1.O=C(O)C(=O)O [Example 157, 4-[2-(3-Ethanoylphenylthio)ethyl]-1H-imidazole oxalate]
[2]
  Change in the level of cerebral tele-methylhistamine (relative to controls): -38%

## CCCCCCCOCCCc1c[nH]cn1 [Example 64, 3-(1H-Imidazol-4-yl)propyl heptyl ether]
Histamine H3 receptor [4]
  Ki: 16 nM

## Cc1cc(C)cc(NC(=O)OCCCc2c[nH]cn2)c1 [Example 115, N-(3,5-Dimethylphenyl)-3-(1H-imidazol-4-yl)propyl carbamate]
Histamine H3 receptor [4]
  Ki: 44 nM

## c1nc(CCCOc2ccc3c(c2)CCCC3)c[nH]1 [Example 21, 4-[3-(1,2,3,4-Tetrahydro-6-naphthyloxy)propyl]-1H-imidazole]
Histamine H3 receptor [4]
  Ki: 45 nM
[3]; [5]
  change in vivo at 10 mg/kg: 79%

## CCCN(CCC)C(=O)OCCCc1c[nH]cn1 [Example 39, 3-(1H-Imidazol-4-yl)propyl-N,N-dipropyl carbamate]
[3]; [5]
  change in vivo at 10 mg/kg: 84%

## c1nc(CCCOCCC2CC3CCC2C3)c[nH]1 (centres unmarked) [Example 61, 2-(Bicyclo[2.2.1]hept-2-yl)ethyl 3-(1H-imidazol-4-yl)propyl ether]
Histamine H3 receptor [4]
  Ki: 0.5 nM

## CON=C(C)c1ccc(OCCCc2c[nH]cn2)cc1 [Example 93, (4-(3-(1H-Imidazol-4-yl)propyloxy)phenyl)ethanone O-methyloxime]
Histamine H3 receptor [4]
  Ki: 25 nM

## CCCC(=NO)c1ccc(OCCCc2c[nH]cn2)cc1 [Example 140, (4-(3-(1H-Imidazol-4-yl)propyloxy)phenyl)butanone oxime]
[3]; [5]
  change in vivo at 10 mg/kg: 84%

## CC(C)(C)CNC(=O)OCCCc1c[nH]cn1 [Example 111, N-(2,2-Dimethylpropyl)-3-(1H-imidazol-4-yl)propyl carbamate]
Histamine H3 receptor [1]; in words
  functional class at the histamine H3 receptors (agonists): agonists or partial agonists
[2]
  Change in the level of cerebral tele-methylhistamine (relative to controls): -34%

## FC(F)(F)c1cccc(OCCCc2c[nH]cn2)c1 [Example 8, 4-[3-(3-Trifluoramethylphenoxy)propyl]-1H-imidazole]
Histamine H3 receptor [1]; in vitro
  Emax: 40%
Histamine H3 receptor [1]
  EC50: 100 nM
[2]
  Change in the level of cerebral tele-methylhistamine (relative to controls): -41%

## CC(=O)c1ccc(OCCCc2c[nH]cn2)cc1 [Example 78, (4-(3-(1H-Imidazol-4-yl)propyloxy)phenyl)ethanone]
[3]; [5]
  change in vivo at 10 mg/kg: 68%

## O=C(NC(c1ccccc1)c1ccccc1)OCCCc1c[nH]cn1 [Example 2, 3-(1H-Imidazol-4-yl)propyl-N-(diphenylmethyl) carbamate]
Histamine H3 receptor [1]; in vitro, in words
  behaviour in vitro at the H3 receptor: behaves essentially as an antagonist
Histamine H3 receptor [1]; in vitro
  Emax: ~20%
Histamine H3 receptor [1]
  EC50: 100 nM
Plasma extravasation
  response in the capsaicin-induced plasma extravasation test compared with (R)-α-methylhistamine: a response akin to that of (R)-α-methylhistamine
[2]
  Change in the level of cerebral tele-methylhistamine (relative to controls): -30%
[2]; in vivo, in words
  response in the tele-methylhistamine test compared with (R)-α-methylhistamine: a response akin to that of (R)-α-methylhistamine

## CCCCCNC(=O)OCCCc1c[nH]cn1 [Example 30, 3-(1H-Imidazol-4-yl)propyl-N-pentyl carbamate]
[3]; [5]
  change in vivo at 10 mg/kg: 67%

## CSc1ccc(OCCCc2c[nH]cn2)cc1 [Example 166, 4-[3-(4-Thiomethylphenoxy)propyl]-1H-imidazole oxalate]
Histamine H3 receptor [4]
  Ki: 3 nM

## Cc1ccc(OCCc2c[nH]cn2)cc1 [Example 160, 4-[2-(4-Methylphenoxy)ethyl]-1H-imidazole oxalate]
[3]; [5]
  change in vivo at 10 mg/kg: 95%

— patent publication US6248765A, “Imidazole derivatives as histamine receptor H3 (ANT) agonists” (priority 1995, dated 2001)
